Results as given in patent US4045298A, “Antibiotic XK-62-2 and process for production thereof” (priority 1972, dated 1977).
In brackets after ≈: the same amount, converted by molar mass. Entries after “also recorded” stand apart in the source; their conditions may differ.

Legend:
[1] = system: Proteus vulgaris ATCC 6897; test: Minimum inhibitory concentration by agar dilution method; format: cell-based; conditions: ATCC6897, read-out: Minimum inhibitory concentration
Description: Antibacterial spectra of XK-62-2 by agar
(§1) The comparative in vitro activities of these antibiotics against various microorganisms of the genus Proteus are shown in the following Table 6.
(§2) Minimum inhibitory concentration
(§3) (γ/ml : by agar dilution method)

[2] = system: Proteus mirabilis Finland 9; test: as above; format: cell-based; conditions: FINLAND9, read-out: Minimum inhibitory concentration
Description: as §1, §2, §3

[3] = system: Proteus mirabilis No. 39; test: as above; format: cell-based; conditions: NO.39, read-out: Minimum inhibitory concentration
Description: as §1, §2, §3

[4] = system: Proteus mirabilis No. 825; test: as above; format: cell-based; conditions: NO.825, read-out: Minimum inhibitory concentration
Description: as §1, §2, §3

[5] = system: Proteus morganii Jenkins; test: as above; format: cell-based; conditions: Morganella morganii, read-out: Minimum inhibitory concentration
Description: as §1, §2, §3

[6] = system: Proteus rettgeri Booth; test: as above; format: cell-based; conditions: Providencia rettgeri, read-out: Minimum inhibitory concentration
Description: as §1, §2, §3

[7] = system: Proteus rettgeri Hambrook; test: as above; format: cell-based; conditions: Providencia rettgeri, read-out: Minimum inhibitory concentration
Description: as §1, §2, §3

[8] = system: Proteus vulgaris Abbott JJ; test: as above; format: cell-based; conditions: read-out: Minimum inhibitory concentration
Description: as §1, §2, §3

[9] = system: Pseudomonas aeruginosa KY 4276; test: as above; format: cell-based; conditions: KY4276, clinical isolate, Table 7
Description: as §2, §3

[10] = system: Pseudomonas aeruginosa KY 8510; test: as above; format: cell-based; conditions: Pseudomonas aeruginosa, KY8510; agar dilution; clinical isolate; Table 7
Description: as §2, §3

[11] = system: Pseudomonas aeruginosa KY 8511; test: as above; format: cell-based; conditions: KY8511, clinical isolate, Table 7
Description: as §2, §3

[12] = system: Pseudomonas aeruginosa KY 8512; test: as above; format: cell-based; conditions: KY8512, clinical isolate, Table 7
Description: as §2, §3

[13] = system: Pseudomonas aeruginosa KY 8514; test: as above; format: cell-based; conditions: KY8514, clinical isolate, Table 7
Description: as §2, §3

[14] = system: Pseudomonas aeruginosa KY 8515; test: as above; format: cell-based; conditions: KY8515, clinical isolate, Table 7
Description: as §2, §3

[15] = system: Pseudomonas aeruginosa KY 8516; test: as above; format: cell-based; conditions: Pseudomonas aeruginosa, KY8516; agar dilution; clinical isolate; Table 7
Description: as §2, §3

[16] = system: Pseudomonas aeruginosa KY 8520; test: as above; format: cell-based; conditions: KY8520, clinical isolate, Table 7
Description: as §2, §3

[17] = system: Pseudomonas aeruginosa KY 8562; test: as above; format: cell-based; conditions: KY8562, clinical isolate, Table 7
Description: as §2, §3

[18] = system: specific enzyme system which inactivates gentamicin C1a or kanamycin by acetylating; format: biochemical, Pseudomonas aeruginosa; conditions: acetylating enzyme of KY 8510 and 8516 strains
[19] = system: Bacillus subtilis No. 10707; test: Activity (unit/mg) of isolated preparations; paper disk method using an agar plate; format: cell-based
Method: (§4) After the completion of fermentation, the culture liquor is adjusted to a pH of 2.0 with 12N sulfuric acid and stirred for 30 minutes. Then, about 10 kg of a filter aid, Radiolite No. 600 (product of Showa Kagaku Kogyo Co., Ltd., Japan) is added thereto and the microbial cells are removed by filtration. The filtrate is adjusted to a pH of 8.0 with 6N sodium hydroxide and passed through a column packed with about 50 l of a cation exchange resin, Amberlite IRC-50 (ammonia form). The active substance is adsorbed on the resin and the eluate is discarded. After washing the resin with water, the active substance is eluted out with 1N aqueous ammonia.
Active fractions are combined and concentrated in vacuo to about 5 l. The concentrate is then adjusted to a pH of 8.0 with 6N sulfuric acid and passed through a column packed with 1 l of an anion exchange resin, Dowex 1×2 (OH^- form). The column is washed with about 5 l of water and the effluent and the washings containing active substance are combined and are concentrated to 1/15 by volume. […] The resultant precipitate is removed by filtration and the filtrate is concentrated to 500 ml. The concentrate is adjusted to a pH of 4.5 with 6N sulfuric acid and 2.5 l of methanol is added thereto. […] The precipitate is separated by filtration and washed with methanol.
as §4, with “of” for “of a filter aid,”, “(trade name)” for “(product of Showa Kagaku Kogyo Co., Ltd., Japan)”, “The” for “The active substance is adsorbed on the resin and the”

[20] = Solubility; format: physicochemical
[21] = Example 2, free base, Mm-628 ATCC 21827
[22] = Example 6, free base, Micromonospora purpurea ATCC 15835
[23] = Example 7, free base, Micromonospora echinospora ATCC 15837 NRRL 2985
[24] = Example 7, free base, Micromonospora echinospora var. ferruginea NRRL 2995
[25] = Example 7, free base, Micromonospora echinospora var. pallida NRRL 2996

SMILES | MIC [1] | MIC [2] | MIC [3] | MIC [4] | MIC [5] | MIC [6] | MIC [7] | MIC [8] | MIC [9] | MIC [10] | MIC [11] | MIC [12] | MIC [13] | MIC [14] | MIC [15] | MIC [16] | MIC [17] | Activity [19, 21] | Activity [19, 22] | Activity [19, 23] | also measured
NC[C@H]1O[C@H](O[C@H]2[C@H](O)[C@@H](O[C@H]3O[C@H](CO)[C@@H](O)[C@H](N)[C@H]3O)[C@H](N)C[C@@H]2N)[C@H](O)[C@@H](O)[C@@H]1O [kanamycin] | 0.34 µg/mL (≈ 0.702 µM) | 0.04 µg/mL (≈ 0.0826 µM) | 0.33 µg/mL (≈ 0.681 µM) | 0.04 µg/mL (≈ 0.0826 µM) | 0.16 µg/mL (≈ 0.33 µM) | 0.08 µg/mL (≈ 0.165 µM) | 0.08 µg/mL (≈ 0.165 µM) | 0.16 µg/mL (≈ 0.33 µM) | 1.63 µg/mL (≈ 3.36 µM) | 13 µg/mL (≈ 26.8 µM) | 13 µg/mL (≈ 26.8 µM) | 3.3 µg/mL (≈ 6.81 µM) | 208 µg/mL (≈ 429 µM) | 416 µg/mL (≈ 859 µM) | 26 µg/mL (≈ 53.7 µM) | 104 µg/mL (≈ 215 µM) | 167 µg/mL (≈ 345 µM) |  |  |  | Inactivation by acetylation (6'-NH2) [18]: inactivates
CN[C@@H]1[C@@H](O)[C@@H](O[C@@H]2[C@@H](O)[C@H](O[C@H]3O[C@H]([C@@H](C)NC)CC[C@H]3N)[C@@H](N)C[C@H]2N)OC[C@]1(C)O [gentamicin C1, reference compound] |  |  |  |  |  |  |  |  |  |  |  |  |  |  |  |  |  | 880 unit/mg | 821 unit/mg | 906 unit/mg | Activity [19, 24]: 830 unit/mg; Activity [19, 25]: 940 unit/mg
CN[C@@H]1[C@@H](O)[C@@H](O[C@@H]2[C@@H](O)[C@H](O[C@H]3O[C@H]([C@@H](C)N)CC[C@H]3N)[C@@H](N)C[C@H]2N)OC[C@]1(C)O [gentamicin C2, reference compound] |  |  |  |  |  |  |  |  |  |  |  |  |  |  |  |  |  | 925 unit/mg | 880 unit/mg | 845 unit/mg | Activity [19, 24]: 853 unit/mg; Activity [19, 25]: 859 unit/mg
[H]/N=C(/N)N[C@H]1[C@H](O)[C@@H](O)[C@H](O[C@@H]2O[C@@H](C)[C@](O)(C=O)[C@H]2O[C@@H]2O[C@@H](CO)[C@H](O)[C@@H](O)[C@@H]2NC)[C@@H](N/C(N)=N\[H])[C@@H]1O [streptomycin] | > 40 µg/mL | > 40 µg/mL | > 40 µg/mL | > 40 µg/mL | > 40 µg/mL | > 40 µg/mL | > 40 µg/mL | > 40 µg/mL | 2.6 µg/mL (≈ 4.47 µM) | 0.65 µg/mL (≈ 1.12 µM) | > 2500 µg/mL | 42 µg/mL (≈ 72.2 µM) | 156 µg/mL (≈ 268 µM) | 624 µg/mL (≈ 1070 µM) | 0.65 µg/mL (≈ 1.12 µM) | 5.2 µg/mL (≈ 8.94 µM) | 156 µg/mL (≈ 268 µM) |  |  |  | 
CNC[C@@H]1CC[C@@H](N)[C@@H](O[C@H]2[C@H](O)[C@@H](O[C@H]3OC[C@](C)(O)[C@H](NC)[C@H]3O)[C@H](N)C[C@@H]2N)O1 [sulfate of XK-62-2] |  |  |  |  |  |  |  |  |  |  |  |  |  |  |  |  |  |  |  |  | Activity ([19]; Example 4, sulfate): 792 unit/mg; Solubility in acetone ([20]; acetone): insoluble; Solubility in methanol ([20]; methanol): poorly soluble; also recorded: insoluble; Solubility in water ([20]; water): very soluble
